In the assay the target is Glycolate oxidase (Sus scrofa). The experiment in a line: In vitro inhibition of porcine Glycolate oxidase.

As to `O=C(O)C(=O)CC(=O)c1ccc(-c2ccc(SCC3(O)COc4ccccc4OC3)cc2)cc1`, the IC50 amounted to 60 nM.
The value for `O=C(O)C(=O)CC(=O)c1ccc(-n2c(-c3ccccc3)cc3ccccc32)cc1` was 180 nM; that for `CCCCCCCCCc1ccc(C(=O)CC(=O)C(=O)O)cc1` was 600 nM.
For `O=C(O)C(=O)CC(=O)c1ccc(-c2ccc(SCc3ccccc3)cc2)cc1` the value was 400 nM; for `O=C(O)C(=O)CC(=O)c1ccc(-c2ccc(Br)cc2)cc1`, 63 nM.
For `CC1=C(C=CC(=O)CC(=O)C(=O)O)C(C)(C)CCC1` the value was 1400 nM; for `O=C(C=Cc1ccccc1)CC(=O)C(=O)O`, 19000 nM; for `CSc1ccc(-c2ccc(C(=O)CC(=O)C(=O)O)cc2)cc1`, 160 nM.
The compound `O=C(O)C(=O)CC(=O)c1ccc(C2CCCc3ccccc32)cc1` (centres undefined) registered a half-maximal inhibitory concentration (IC50) of 2100 nM. This IC50 is about 13-fold higher than that of the compound before.

What is called IC50 is the midpoint of a concentration-inhibition curve. Low values mean greater potency, high ones weaker potency.

The record behind these values is BindingDB's records for doi:10.1021/jm00362a020 (1983).
